pEC50, pIC50: −log10 of the molar value. The source made the active and inactive calls. No cut-off for these calls is given here.
Experiments:
[1] = Antiproliferative activity against human U87 cells expressing GFP after 3 days by flash-cytometry; type: functional, U-87MG ATCC; settings: U-87 MG, 72 h, read-out: ED50 (the source's name)
[2] = Cytotoxicity against human KB3 cells after 72 hrs by MTS assay; type: functional; settings: KB3, 72 h
[3] = Cytotoxicity against human Hs683 cells by MTT assay; type: functional, cell-based; settings: Hs 683
BXPC-3 = experiment: Cytotoxicity against human BxPC3 cells by MTT assay; type: functional, cell-based
A549 = experiment: Cytotoxicity against human A549 cells by MTT assay; type: functional, cell-based
[4] = Cytotoxicity against human U373 cells by MTT assay; type: functional, cell-based, U-373MG ATCC; settings: U373 MG
MCF7 = experiment: Cytotoxicity against human MCF7 cells by MTT assay; type: functional, cell-based
T98G = experiment: Cytotoxicity against human T98G cells by MTT assay; type: functional, cell-based
LoVo = experiment: Cytotoxicity against human LoVo cells by MTT assay; type: functional, cell-based
PC-3 = experiment: Cytotoxicity against human PC3 cells by MTT assay; type: functional, cell-based
Nucleic Acid [5] = experiment: Binding affinity to calf thymus DNA assessed as DNA cleavage at 2 to 100 uM by electrophoresis; type: nucleic-acid assay; settings: Bos taurus
Nucleic Acid [6] = experiment: Binding affinity to calf thymus DNA at 2 to 100 uM by EMSA; type: nucleic-acid assay; settings: Bos taurus
[7] = Cytotoxicity against human KB3-1 cells assessed as reduction of glutathione level after 72 hrs by MTT assay; type: functional; settings: KB 3-1, 72 h
Nucleic Acid [8] = experiment: Binding affinity to calf thymus DNA assessed as DNA alkylation at 2 to 100 uM after 24 hrs; type: nucleic-acid assay; settings: Bos taurus
[9] = Cytotoxicity against human KB3-1 cells assessed as reduction of glutathione level after 72 hrs by MTT assay pretreated with buthionin sulfoximine; type: functional; settings: KB 3-1
Nucleic Acid [10] = experiment: Binding affinity to calf thymus DNA at 2 to 100 uM by standard spectrometry; type: nucleic-acid assay; settings: Bos taurus

Oc1ccc(CN(Cc2ccc(O)c3ncccc23)Cc2ccc(O)c3ncccc23)c2cccnc12
pEC50 [1]: < 5.00
CC50 [2]: > 10000 nM

Oc1ccc(CNCc2cccc(C(F)(F)F)c2)c2cccnc12
pEC50 [1]: 6.74
CC50 [2]: 200 nM

Oc1ccc(CN(Cc2ccc(OC(F)(F)F)cc2)Cc2ccc(O)c3ncccc23)c2cccnc12
CC50 [2]: 100 nM

Oc1ccc(CN(Cc2cccc(C(F)(F)F)c2)Cc2ccc(O)c3ncccc23)c2cccnc12
pEC50 [1]: 5.70
CC50 [2]: 2200 nM
pIC50 [3]: 7.44
pIC50 (BXPC-3): 6.78
pIC50 (A549): 7.42
pIC50 [4]: 7.19
pIC50 (MCF7): 7.52
pIC50 (T98G): 7.24
pIC50 (LoVo): 7.03
pIC50 (PC-3): 7.43

COc1ccc(CN(Cc2ccc(C(F)(F)F)cc2)Cc2ccc(O)c3ncccc23)c2cccnc12
CC50 [2]: > 10000 nM

Oc1ccc(CNCc2ccccc2)c2cccnc12
CC50 [2]: > 1000 nM

Oc1ccc(CN(CCN2CCCC2)Cc2ccc(O)c3ncccc23)c2cccnc12
pEC50 [1]: 6.70
CC50 [2]: 1000 nM

CC(C)(C)OC(=O)N(Cc1ccc(C(F)(F)F)cc1)Cc1ccc(O)c2ncccc12
pEC50 [1]: 5.70
CC50 [2]: 10000 nM

Oc1ccc(CNCc2ccc(C(F)(F)F)cc2)c2cccnc12
pEC50 [1]: < 5.00
CC50 [2]: 10000 nM

Oc1ccc(CN(CCc2ccccn2)Cc2ccc(O)c3ncccc23)c2cccnc12
CC50 [2]: > 10000 nM

O=C(O)C1CCC(CN(Cc2ccc(O)c3ncccc23)Cc2ccc(O)c3ncccc23)CC1 (configuration not stated)
CC50 [2]: 1100 nM
pIC50 [3]: 5.54
pIC50 (BXPC-3): 5.36
pIC50 (A549): 6.18
pIC50 [4]: 5.43
pIC50 (MCF7): 5.02
pIC50 (T98G): 5.01
pIC50 (LoVo): 6.37
pIC50 (PC-3): 5.00

Oc1ccc(CN(Cc2ccccc2)Cc2ccccc2)c2cccnc12
pEC50 [1]: 5.30
CC50 [2]: 1000 nM

Oc1ccc(CN(Cc2ccccc2C(F)(F)F)Cc2ccc(O)c3ncccc23)c2cccnc12
pEC50 [1]: > 6.70
CC50 [2]: 100 nM
pIC50 [3]: 7.19
pIC50 (BXPC-3): 6.56
pIC50 (A549): 7.34
pIC50 [4]: 7.11
pIC50 (MCF7): 7.06
pIC50 (T98G): 6.68
pIC50 (LoVo): 7.03
pIC50 (PC-3): 6.75

Oc1ccc(CN(Cc2ccccc2)Cc2ccc(O)c3ncccc23)c2cccnc12
pEC50 [1]: > 6.30
CC50 [2]: 20 nM
pIC50 [3]: 7.12
pIC50 (BXPC-3): 5.13
pIC50 (A549): 6.26
pIC50 [4]: 6.45
pIC50 (MCF7): 7.01
pIC50 (T98G): 6.60
pIC50 (LoVo): 7.04
pIC50 (PC-3): 6.59

CC(C)(C)OC(=O)N(Cc1cccc(C(F)(F)F)c1)Cc1ccc(O)c2ncccc12
pEC50 [1]: < 5.00
CC50 [2]: 1000 nM

Cn1cccc1CN(Cc1ccc(O)c2ncccc12)Cc1ccc(O)c2ncccc12
pEC50 [1]: 5.70

Oc1ccc(CN(Cc2cccc(I)c2)Cc2ccc(O)c3ncccc23)c2cccnc12
pEC50 [1]: 5.70
CC50 [2]: 1000 nM
pIC50 [3]: 6.32
pIC50 (BXPC-3): 5.59
pIC50 (A549): 6.46
pIC50 [4]: 5.25
pIC50 (MCF7): 6.43
pIC50 (T98G): 6.35
pIC50 (LoVo): 6.41
pIC50 (PC-3): 6.40

Oc1ccc(CN(Cc2cc(C(F)(F)F)cc(C(F)(F)F)c2)Cc2ccc(O)c3ncccc23)c2cccnc12
pEC50 [1]: > 6.70
CC50 [2]: 1000 nM
pIC50 [3]: 6.74
pIC50 (BXPC-3): 7.10
pIC50 (A549): 8.05
pIC50 [4]: 7.02
pIC50 (MCF7): 7.42
pIC50 (T98G): 7.14
pIC50 (LoVo): 8.00
pIC50 (PC-3): 7.15

Oc1ccc(CN(Cc2ccc(C(F)(F)F)cc2)Cc2ccc(O)c3ncccc23)c2cccnc12
pEC50 [1]: > 6.70
CC50 [2]: 1 nM
Activity (Nucleic Acid [5]): inactive
pIC50 [3]: 8.00
pIC50 (BXPC-3): 5.37
pIC50 (A549): 8.10
Activity (Nucleic Acid [6]): inactive
pIC50 [4]: 7.36
pIC50 (MCF7): 7.47
pIC50 (T98G): 7.00
CC50 [7]: 33 nM
pIC50 (LoVo): 8.00
Activity (Nucleic Acid [8]): inactive
pIC50 (PC-3): 7.18
CC50 [9]: 70 nM
Activity (Nucleic Acid [10]): inactive

Oc1ccc(CN(Cc2cccs2)Cc2ccc(O)c3ncccc23)c2cccnc12
pEC50 [1]: > 6.70
CC50 [2]: 2 nM
pIC50 [3]: 7.46
pIC50 (BXPC-3): 7.05
pIC50 (A549): 7.57
pIC50 [4]: 7.07
pIC50 (MCF7): 7.46
pIC50 (T98G): 7.06
pIC50 (LoVo): 7.40
pIC50 (PC-3): 7.36

Cc1ccc(CNCc2ccc(O)c3ncccc23)cc1
pEC50 [1]: < 5.00

Cc1ccc(C(=O)NCc2ccc(O)c3ncccc23)cc1
pEC50 [1]: 5.00
CC50 [2]: 1000 nM

Oc1ccc(CN(Cc2ccc(O)c3ncccc23)CC2CCCO2)c2cccnc12 (configuration not stated)
pEC50 [1]: 5.30
CC50 [2]: 10000 nM

Oc1ccc(CN(Cc2ccc(C(F)(F)F)cc2)Cc2cccc3ncccc23)c2cccnc12
pEC50 [1]: < 5.00
CC50 [2]: 10000 nM

CC(C)(C)OC(=O)N(Cc1cc(C(F)(F)F)cc(C(F)(F)F)c1)Cc1ccc(O)c2ncccc12
CC50 [2]: 1000 nM

Source: ChEMBL document CHEMBL1153753, “Structure-activity relationships and mechanism of action of antitumor bis 8-hydroxyquinoline substituted benzylamines” (Eur J Med Chem, 2010)
